A short description of data set [1]: Compatibility of plasticizer with ranitidine HCl. The following applies: plasticizer in polymeric film coating of ranitidine HCl tablets.
Data set [2] in a line: Cast film plasticizer comparison study (discoloration). In kind it is physicochemical. The arrangement: key: 1 = least discoloration; 5 = greatest discoloration. The following applies: ranitidine HCl spread on cast HPMC film with plasticizer (0.2 gm per gram HPMC); 60 degrees centigrade/78.9% RH, approximately two weeks; visual. The protocol: Cast film studies are performed using a typical film aqueous coating composition containing, on a per gram HPMC dry weight basis, plasticizer, 0.2 gm, and Opaspray (trademark of Colorcon, Inc., West Point, PA) colorant solids 0.5 gm. Cast films are prepared by adding 1.5 g of a 15% solids solution to a uniform plate, 42 mm in diameter, and drying at ambient temperature for at least 24 hours. Ranitidine HCl (1.5 gm), of particle size 50 to 200 microns, is then spread uniformly on the dried film coating and stored at 60 degrees centigrade/78.9% relative humidity (RH) for approximately two weeks. The RH is controlled by using a desiccator jar and a saturated KBr solution, which is maintained at 60° C. in a drying oven. […] After two weeks, the cast films are removed and visually examined for discoloration.

The conditions of data set [3]: Physicians' Desk Reference, 41st ed., page 993 (1987); cited from earlier work.
The conditions of data set [4]: cited from earlier work.

SMILES strings stand for the structures. “Also recorded” adds a separate entry of the source. Where a name gives a salt, the structure may show the parent alone.

In the case of `CCOC(=O)c1ccccc1C(=O)OCC` [diethyl phthalate], the “reactivity with ranitidine HCl or promotion of its degradation” value (shortened to “reactivity”) in data set [1] is reported as “tend to react with ranitidine HCl or promote degradation at the tablets' surfaces”. As for `OCC(O)CO` [Glycerol, glycerol], in data set [2], the “Cast Film Discoloration” value was 5.

In the case of `CC(=O)OCC(COC(C)=O)OC(C)=O` [Triacetin, 1,2,3-propanetriol triacetate], in data set [2], the “Cast Film Discoloration” value was found to be 1. Besides, in data set [1], the “reactivity” value was “essentially unreactive with ranitidine HCl”.

As for `CCOC(=O)CC(O)(CC(=O)OCC)C(=O)OCC` [Triethyl Citrate, triethyl citrate], the “Cast Film Discoloration” value in data set [2] came to 3. Turning to `CNC(=C[N+](=O)[O-])NCCSCc1ccc(CN(C)C)o1` [ranitidine HCl], in data set [3], the degradation upon aging result was “accelerated by heat, moisture and light”. In data set [4] (25° C.), the solubility in water entry is reported as “greater than 900 mg/mL”. For the same molecule, the “solubility in commonly used organic solvents” value in data set [4] is recorded as “very soluble”. Consider `CCCCOC(=O)CCCCCCCCC(=O)OCCCC` [dibutyl sebecate], for which the “reactivity” value in data set [1] is on record as “tend to react with ranitidine HCl or promote degradation at the tablets' surfaces”. Consider `CC(O)CO` (centres unmarked) [Propylene Glycol, propylene glycol], for which the “Cast Film Discoloration” value in data set [2] came out at 2. Further, the “reactivity” value in data set [1] is “promote degradation; also recorded: tend to react with ranitidine HCl or promote degradation at the tablets' surfaces”.
